# Legend:
# Assay in all cases: Field trial, tank mix of Propaquizafop + Fomesafen on Soybean, weed control
# Assay type in all cases: in vivo
# Digera arvensis = tested on: Digera arvensis
# Source text: (§1) In the context of the present subject matter, the term “synergy” is as defined by Colby S. R. in an article entitled “Calculation of the synergistic and antagonistic responses of herbicide combinations” published in the journal Weeds, 1967, 15, p. 20-22, incorporated herein by reference in its entirety. The action expected for a given combination of […] active ingredients can be calculated as follows: […]
# (§2) When the percentage of herbicidal control observed for the combination is greater than the expected percentage, there is a synergistic effect. When the percentage of control observed for the combination is equal to the expected percentage, there is an additive effect and wherein the percentage of herbicidal control observed for the combination is lower than the expected percentage, there is an antagonistic effect.
# (§3) The herbicides were applied using the following applications rates:
# (§4) The applications were applied 20 DAS. Design & Plot size: RBD & 25 Sq.mt.
# (§5) Species wise weed count may be recorded at 15, 30 and 45 DAA (Days After Application). A subjective score of damage done by the herbicide on the plants may be given based on the weed count compared to the untreated checks. A score of 100% indicated complete control and a score of 0% indicates zero herbicide effect.
# (§6) The % control observed may be calculated as follows: […]
# (§7) The synergy of the mixture of fomesafen and propaquizafop may be calculated using the formula: […]
# Acalypha indica = tested on: Acalypha indica
# Source text: as §1, §2, §3, §4, §5, §6, §7
# Eleusine indica = tested on: Eleusine indica
# Source text: as §1, §2, §3, §4, §5, §6, §7
# Amaranthus viridis = tested on: Amaranthus viridis
# Source text: as §1, §2, §3, §4, §5, §6, §7
# Echinochloa colona = tested on: Echinochloa colona
# Source text: as §1, §2, §3, §4, §5, §6, §7
# Commelina benghalensis = tested on: Commelina benghalensis
# Source text: as §1, §2, §3, §4, §5, §6, §7
# Dinebra arabica = tested on: Dinebra arabica
# Source text: as §1, §3, §4, §5
compound,measurement,setting,value
"CS(=O)(=O)NC(=O)c1cc(Oc2ccc(C(F)(F)F)cc2Cl)ccc1[N+](=O)[O-] [Fomesafen, 5-[2-chloro-4-(trifluoromethyl)phenoxy]-N-(methylsulfonyl)-2-nitrobenzamide]",% control observed,"Digera arvensis; 500 ml/Acre, 15DAA",70%
same,% control observed,"Digera arvensis; 500 ml/Acre, 30DAA",68.5%
same,% control observed,"Digera arvensis; 500 ml/Acre, 45DAA",66.6%
same,% control observed,"Digera arvensis; 750 ml/Acre, 15DAA",74.2%
same,% control observed,"Digera arvensis; 750 ml/Acre, 30DAA",71.5%
same,% control observed,"Digera arvensis; 750 ml/Acre, 45DAA",70.5%
same,% control observed,"Digera arvensis; 1000 ml/Acre, 15DAA",78.2%
same,% control observed,"Digera arvensis; 1000 ml/Acre, 30DAA",75.2%
same,% control observed,"Digera arvensis; 1000 ml/Acre, 45DAA",74%
same,% control observed,"Acalypha indica; 500 ml/Acre, 15DAA",58.2%
same,% control observed,"Acalypha indica; 500 ml/Acre, 30DAA",55.4%
same,% control observed,"Acalypha indica; 500 ml/Acre, 45DAA",53.8%
same,% control observed,"Acalypha indica; 750 ml/Acre, 15DAA",63.8%
same,% control observed,"Acalypha indica; 750 ml/Acre, 30DAA",61.7%
same,% control observed,"Acalypha indica; 750 ml/Acre, 45DAA",60.6%
same,% control observed,"Acalypha indica; 1000 ml/Acre, 15DAA",75.9%
same,% control observed,"Acalypha indica; 1000 ml/Acre, 30DAA",73.6%
same,% control observed,"Acalypha indica; 1000 ml/Acre, 45DAA",72.6%
same,% control observed,"Eleusine indica; 500 ml/Acre, 15DAA",8.2%
same,% control observed,"Eleusine indica; 500 ml/Acre, 30DAA",4.7%
same,% control observed,"Eleusine indica; 500 ml/Acre, 45DAA",3.3%
same,% control observed,"Eleusine indica; 750 ml/Acre, 15DAA",12.6%
same,% control observed,"Eleusine indica; 750 ml/Acre, 30DAA",6.3%
same,% control observed,"Eleusine indica; 750 ml/Acre, 45DAA",5%
same,% control observed,"Eleusine indica; 1000 ml/Acre, 15DAA",17.1%
same,% control observed,"Eleusine indica; 1000 ml/Acre, 30DAA",8.9%
same,% control observed,"Eleusine indica; 1000 ml/Acre, 45DAA",7.5%
same,% control observed,"Amaranthus viridis; 500 ml/Acre, 15DAA",67.7%
same,% control observed,"Amaranthus viridis; 500 ml/Acre, 30DAA",66.9%
same,% control observed,"Amaranthus viridis; 500 ml/Acre, 45DAA",64.8%
same,% control observed,"Amaranthus viridis; 750 ml/Acre, 15DAA",71.3%
same,% control observed,"Amaranthus viridis; 750 ml/Acre, 30DAA",70.5%
same,% control observed,"Amaranthus viridis; 750 ml/Acre, 45DAA",69.1%
same,% control observed,"Amaranthus viridis; 1000 ml/Acre, 15DAA",74.7%
same,% control observed,"Amaranthus viridis; 1000 ml/Acre, 30DAA",73.7%
same,% control observed,"Amaranthus viridis; 1000 ml/Acre, 45DAA",71.1%
same,% control observed,"Echinochloa colona; 500 ml/Acre, 15DAA",8.91%
same,% control observed,"Echinochloa colona; 500 ml/Acre, 30DAA",6.65%
same,% control observed,"Echinochloa colona; 500 ml/Acre, 45DAA",5.02%
same,% control observed,"Echinochloa colona; 750 ml/Acre, 15DAA",14%
same,% control observed,"Echinochloa colona; 750 ml/Acre, 30DAA",10.7%
same,% control observed,"Echinochloa colona; 750 ml/Acre, 45DAA",7.5%
same,% control observed,"Echinochloa colona; 1000 ml/Acre, 15DAA",18.2%
same,% control observed,"Echinochloa colona; 1000 ml/Acre, 30DAA",15.8%
same,% control observed,"Echinochloa colona; 1000 ml/Acre, 45DAA",13.6%
same,% control observed,"Commelina benghalensis; 500 ml/Acre, 15DAA",66.2%
same,% control observed,"Commelina benghalensis; 500 ml/Acre, 30DAA",64.2%
same,% control observed,"Commelina benghalensis; 500 ml/Acre, 45DAA",62.7%
same,% control observed,"Commelina benghalensis; 750 ml/Acre, 15DAA",72.8%
same,% control observed,"Commelina benghalensis; 750 ml/Acre, 30DAA",70.2%
same,% control observed,"Commelina benghalensis; 750 ml/Acre, 45DAA",69.7%
same,% control observed,"Commelina benghalensis; 1000 ml/Acre, 15DAA",77.8%
same,% control observed,"Commelina benghalensis; 1000 ml/Acre, 30DAA",75%
same,% control observed,"Commelina benghalensis; 1000 ml/Acre, 45DAA",72.5%
same,% control observed,"Dinebra arabica; 500 ml/Acre, 15DAA",2.62%
same,% control observed,"Dinebra arabica; 500 ml/Acre, 45DAA",0.21%
same,% control observed,"Dinebra arabica; 750 ml/Acre, 15DAA",15.2%
same,% control observed,"Dinebra arabica; 750 ml/Acre, 30DAA",11.1%
same,% control observed,"Dinebra arabica; 750 ml/Acre, 45DAA",10%
same,% control observed,"Dinebra arabica; 1000 ml/Acre, 15DAA",23.4%
same,% control observed,"Dinebra arabica; 1000 ml/Acre, 30DAA",16.4%
same,% control observed,"Dinebra arabica; 1000 ml/Acre, 45DAA",14.3%
"CC(C)=NOCCOC(=O)[C@@H](C)Oc1ccc(Oc2cnc3cc(Cl)ccc3n2)cc1 [Propaquizafop, (R)-2-[[(1-methylethylidene)amino]oxy]ethyl 2-[4-[(6-chloro-2-quinoxalinyl)oxy]phenoxy]propanoate]",% control observed,"Digera arvensis; 400 ml/Acre, 15DAA",13.9%
same,% control observed,"Digera arvensis; 400 ml/Acre, 30DAA",9.3%
same,% control observed,"Digera arvensis; 400 ml/Acre, 45DAA",2.1%
same,% control observed,"Digera arvensis; 500 ml/Acre, 15DAA",19.5%
same,% control observed,"Digera arvensis; 500 ml/Acre, 30DAA",15.5%
same,% control observed,"Digera arvensis; 500 ml/Acre, 45DAA",14.4%
same,% control observed,"Acalypha indica; 400 ml/Acre, 15DAA",7.1%
same,% control observed,"Acalypha indica; 400 ml/Acre, 30DAA",3.7%
same,% control observed,"Acalypha indica; 400 ml/Acre, 45DAA",2.9%
same,% control observed,"Acalypha indica; 500 ml/Acre, 15DAA",25.2%
same,% control observed,"Acalypha indica; 500 ml/Acre, 30DAA",12.3%
same,% control observed,"Acalypha indica; 500 ml/Acre, 45DAA",9.8%
same,% control observed,"Eleusine indica; 400 ml/Acre, 15DAA",64%
same,% control observed,"Eleusine indica; 400 ml/Acre, 30DAA",56.7%
same,% control observed,"Eleusine indica; 400 ml/Acre, 45DAA",53.4%
same,% control observed,"Eleusine indica; 500 ml/Acre, 15DAA",65.5%
same,% control observed,"Eleusine indica; 500 ml/Acre, 30DAA",57.7%
same,% control observed,"Eleusine indica; 500 ml/Acre, 45DAA",55.2%
same,% control observed,"Amaranthus viridis; 400 ml/Acre, 15DAA",8.2%
same,% control observed,"Amaranthus viridis; 400 ml/Acre, 30DAA",2.6%
same,% control observed,"Amaranthus viridis; 400 ml/Acre, 45DAA",2.3%
same,% control observed,"Amaranthus viridis; 500 ml/Acre, 15DAA",13.6%
same,% control observed,"Amaranthus viridis; 500 ml/Acre, 30DAA",7.6%
same,% control observed,"Amaranthus viridis; 500 ml/Acre, 45DAA",7.1%
same,% control observed,"Echinochloa colona; 400 ml/Acre, 15DAA",72.9%
same,% control observed,"Echinochloa colona; 400 ml/Acre, 30DAA",70.8%
same,% control observed,"Echinochloa colona; 400 ml/Acre, 45DAA",70.4%
same,% control observed,"Echinochloa colona; 500 ml/Acre, 15DAA",75.8%
same,% control observed,"Echinochloa colona; 500 ml/Acre, 30DAA",73.9%
same,% control observed,"Echinochloa colona; 500 ml/Acre, 45DAA",72.9%
same,% control observed,"Commelina benghalensis; 400 ml/Acre, 15DAA",6.8%
same,% control observed,"Commelina benghalensis; 400 ml/Acre, 30DAA",3.2%
same,% control observed,"Commelina benghalensis; 400 ml/Acre, 45DAA",2%
same,% control observed,"Commelina benghalensis; 500 ml/Acre, 15DAA",16.6%
same,% control observed,"Commelina benghalensis; 500 ml/Acre, 30DAA",10.5%
same,% control observed,"Commelina benghalensis; 500 ml/Acre, 45DAA",7.7%
same,% control observed,"Dinebra arabica; 400 ml/Acre, 15DAA",68.2%
same,% control observed,"Dinebra arabica; 400 ml/Acre, 30DAA",67%
same,% control observed,"Dinebra arabica; 400 ml/Acre, 45DAA",65%
same,% control observed,"Dinebra arabica; 500 ml/Acre, 15DAA",72.3%
same,% control observed,"Dinebra arabica; 500 ml/Acre, 30DAA",69.1%
same,% control observed,"Dinebra arabica; 500 ml/Acre, 45DAA",66%

# Source: patent US20200045961A1, “HERBICIDAL MIXTURE FOR USE ON WEEDS” (Adama Agan Ltd., priority 2017, published 2020)
